Data taken from PubChem BioAssay AID330 (DTP/NCI, 2004).
Where “and” joins values, the source holds several entries; their conditions need not be identical. Equal entries are not always repeated. Inconclusive results and toxic doses are left out. The calls were made as follows: active = survival T/C of 150% or more; inactive = T/C below 125% in these data. Square brackets hold non-standard residues; d marks the D form. Peptide text beside a SMILES is read from it. ξ: configuration not given here. ξD = NC(CC(=O)O)C(=O)O

System: P388 leukemia ip, CD2F1 mice, survival T/C
Test: NCI In Vivo Anticancer Drug Screen. Data for tumor model P388 Leukemia (intraperitoneal) in CD2F1 (CDF1) mice
Conditions: endpoint: median survival time, higher = longer survival
Outline: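 Mice carrying the transplanted tumor received test compound or vehicle. Survival was recorded in each group, and the value is the treated-group measurement divided by that of the vehicle-treated control group.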

[1] = dose: 60.0 mg/kg/injection, schedule: Q01DX005 (ip), vehicle: saline with Tween-80
[2] = dose: 120.0 mg/kg/injection, schedule: Q01DX005 (ip), vehicle: saline with Tween-80
[3] = dose: 240.0 mg/kg/injection, schedule: Q01DX005 (ip), vehicle: saline with Tween-80
[4] = dose: 50.0 mg/kg/injection, schedule: Q01DX009 (ip), vehicle: saline with Tween-80
[5] = dose: 100.0 mg/kg/injection, schedule: Q01DX009 (ip), vehicle: saline with Tween-80
[6] = dose: 50.0 mg/kg/injection, schedule: Q01DX005 (ip), vehicle: saline with Tween-80
[7] = dose: 50.0 mg/kg/injection, schedule: Q01DX009 (ip), vehicle: Klucel (hydroxypropylcellulose) (HPC)
[8] = dose: 100.0 mg/kg/injection, schedule: Q01DX001 (ip), vehicle: Klucel (hydroxypropylcellulose) (HPC)
[9] = dose: 25.0 mg/kg/injection, schedule: Q01DX009 (ip), vehicle: saline with Tween-80
[10] = dose: 100.0 mg/kg/injection, schedule: Q01DX009 (ip), vehicle: Klucel (hydroxypropylcellulose) (HPC)
[11] = dose: 200.0 mg/kg/injection, schedule: Q01DX009 (ip), vehicle: Klucel (hydroxypropylcellulose) (HPC)

Measured: T/C

COC(=O)c1nc(=S)[nH]c(C(=O)OC)c1C(=O)c1ccc(C)cc1
inactive: [1] 106 % of control | [2] 100 % of control | [3] 100 % of control

CN(C)c1cccc2c(S(=O)(=O)NCCCCCCCCCCCCN)cccc12
inactive: dose: 100.0 mg/kg/injection, schedule: Q01DX001 (ip), vehicle: saline + Tween-80 + alcohol 105 % of control

NCc1nnn(Cc2ccccc2)c1N
inactive: [4] 90 % of control | [5] 92 % of control | dose: 200.0 mg/kg/injection, schedule: Q01DX009 (ip), vehicle: saline with Tween-80 92 % of control

Clc1ncnc2c1ncn2C1C=CC=CC=C1
inactive: dose: 50.0 mg/kg/injection, schedule: Q01DX005 (ip), vehicle: Klucel (hydroxypropylcellulose) (HPC) 90 % of control | dose: 100.0 mg/kg/injection, schedule: Q01DX005 (ip), vehicle: Klucel (hydroxypropylcellulose) (HPC) 92 % of control | dose: 200.0 mg/kg/injection, schedule: Q01DX005 (ip), vehicle: Klucel (hydroxypropylcellulose) (HPC) 91 % of control

CC(=O)CS(F)(F)(F)(F)F
inactive: [6] 105 % of control

COc1cc2c(/C=N/NS(=O)(=O)c3ccc(C)cc3)c(Cl)[nH]c2cc1C
inactive: dose: 12.5 mg/kg/injection, schedule: Q01DX009 (ip), vehicle: Klucel (hydroxypropylcellulose) (HPC) 103 % of control | dose: 25.0 mg/kg/injection, schedule: Q01DX009 (ip), vehicle: Klucel (hydroxypropylcellulose) (HPC) 95 % of control | [7] 92 % of control | [8] 100 % of control | dose: 200.0 mg/kg/injection, schedule: Q01DX001 (ip), vehicle: Klucel (hydroxypropylcellulose) (HPC) 120 % of control | dose: 400.0 mg/kg/injection, schedule: Q01DX001 (ip), vehicle: Klucel (hydroxypropylcellulose) (HPC) 100 % of control

Cc1ccc(C)c(NC(=O)C(=O)C(C#N)c2c(Cl)cccc2Cl)c1 (stereo not drawn)
inactive: [1] 96 % of control | [2] 102 % of control | [3] 99 % of control

COc1ccc(C(C)=O)cc1OC
inactive: dose: 100.0 mg/kg/injection, schedule: Q04DX003 (ip), vehicle: saline 100 % of control | dose: 200.0 mg/kg/injection, schedule: Q04DX003 (ip), vehicle: saline 100 % of control | dose: 400.0 mg/kg/injection, schedule: Q04DX003 (ip), vehicle: saline 100 % of control

O=C(CCSSCCC(=O)ON1C(=O)CCC1=O)ON1C(=O)CCC1=O
inactive: dose: 6.25 mg/kg/injection, schedule: Q01DX009 (ip), vehicle: saline with Tween-80 100 % of control | dose: 12.5 mg/kg/injection, schedule: Q01DX009 (ip), vehicle: saline with Tween-80 105 % of control | [9] 112 % of control

NC(=S)c1cccc(/C=N/Nc2ccc([N+](=O)[O-])cc2[N+](=O)[O-])c1
inactive: dose: 100.0 mg/kg/injection, schedule: Q01DX001 (ip), vehicle: saline 99 % of control | dose: 200.0 mg/kg/injection, schedule: Q01DX001 (ip), vehicle: saline 105 % of control | dose: 400.0 mg/kg/injection, schedule: Q01DX001 (ip), vehicle: saline 96 % of control

CN(CC(=O)O)c1ccc(/C=C/c2ccnc3ccccc23)cc1
inactive: dose: 50.0 mg/kg/injection, schedule: Q01DX001 (ip), vehicle: saline with Tween-80 100 % of control | dose: 100.0 mg/kg/injection, schedule: Q01DX001 (ip), vehicle: saline with Tween-80 97 % of control | dose: 200.0 mg/kg/injection, schedule: Q01DX001 (ip), vehicle: saline with Tween-80 103 % of control | dose: 400.0 mg/kg/injection, schedule: Q01DX001 (ip), vehicle: saline with Tween-80 101 % of control

CCOC(=O)c1cc(OCC)c(OCC)c(OCC)c1[N+](=O)[O-]
inactive: dose: 50.0 mg/kg/injection, schedule: Q01DX009 (ip), vehicle: saline + Tween-80 + alcohol 98 % of control | dose: 100.0 mg/kg/injection, schedule: Q01DX009 (ip), vehicle: saline + Tween-80 + alcohol 100 % of control | dose: 200.0 mg/kg/injection, schedule: Q01DX009 (ip), vehicle: saline + Tween-80 + alcohol 100 % of control

CSCc1cccc(Cl)c1N
inactive: [9] 102 % of control | [4] 106 % of control | [5] 106 % of control

O=C(C[N+](=O)[O-])OCc1ccccc1
inactive: dose: 12.5 mg/kg/injection, schedule: Q01DX009 (ip), vehicle: other 101 % of control | dose: 25.0 mg/kg/injection, schedule: Q01DX009 (ip), vehicle: other 106 % of control | dose: 50.0 mg/kg/injection, schedule: Q01DX009 (ip), vehicle: other 113 % of control | dose: 100.0 mg/kg/injection, schedule: Q01DX009 (ip), vehicle: other 103 % of control

C/C=C(/C)C(=O)OC1C[C@@]2(C)OC2C(OC(C)=O)[C@@]2(C)CC[C@@](O)(C(C)C)C12 (stereo partly drawn)
inactive: dose: 35.0 mg/kg/injection, schedule: Q01DX005 (ip), vehicle: saline with Tween-80 101 % of control | dose: 70.0 mg/kg/injection, schedule: Q01DX005 (ip), vehicle: saline with Tween-80 96 % of control | dose: 140.0 mg/kg/injection, schedule: Q01DX005 (ip), vehicle: saline with Tween-80 90 % of control

CCOc1ccccc1NC(=S)Nc1ccccc1C(F)(F)F
inactive: [7] 109 % of control | [10] 100 % of control | [11] 100 % of control

COC(=O)c1nc(N)nc(C(=O)OC)c1C(=O)c1ccc([N+](=O)[O-])cc1
inactive: [1] 105 % of control | [2] 97 % of control

NCC(=O)NC(CC(=O)O)C(=O)O (stereo not drawn) (H-Gly-[ξD]-OH)
inactive: dose: 100.0 mg/kg/injection, schedule: Q04DX003 (ip), vehicle: saline with Tween-80 100 % of control | dose: 200.0 mg/kg/injection, schedule: Q04DX003 (ip), vehicle: saline with Tween-80 93 % of control | dose: 400.0 mg/kg/injection, schedule: Q04DX003 (ip), vehicle: saline with Tween-80 94 % of control

CC1CC(C)C(C)C(C)(CN(C)C)C1 (stereo not drawn)
inactive: dose: 12.5 mg/kg/injection, schedule: Q01DX005 (ip), vehicle: saline with Tween-80 102 % of control | dose: 25.0 mg/kg/injection, schedule: Q01DX005 (ip), vehicle: saline with Tween-80 98 % of control | [6] 100 % of control and 96 % of control

Cc1c2cnccc2c(C)c2c1[nH]c1ccccc12
inactive: dose: 25.0 mg/kg/injection, schedule: Q04DX002 (ip), vehicle: Klucel (hydroxypropylcellulose) (HPC) 98 % of control | dose: 50.0 mg/kg/injection, schedule: Q04DX002 (ip), vehicle: Klucel (hydroxypropylcellulose) (HPC) 103 % of control | dose: 100.0 mg/kg/injection, schedule: Q04DX002 (ip), vehicle: Klucel (hydroxypropylcellulose) (HPC) 105 % of control | dose: 180.0 mg/kg/injection, schedule: Q04DX002 (ip), vehicle: Klucel (hydroxypropylcellulose) (HPC) 94 % of control | dose: 200.0 mg/kg/injection, schedule: Q04DX002 (ip), vehicle: Klucel (hydroxypropylcellulose) (HPC) 111 % of control | dose: 360.0 mg/kg/injection, schedule: Q04DX002 (ip), vehicle: Klucel (hydroxypropylcellulose) (HPC) 108 % of control

Cc1cc2cc(CN)ccc2n1C
inactive: [8] 103 % of control

Cc1nc2scc(-c3ccccc3)n2c(=O)c1CN1CCOCC1
inactive: dose: 37.5 mg/kg/injection, schedule: Q04DX002 (ip), vehicle: Klucel (hydroxypropylcellulose) (HPC) 106 % of control | dose: 75.0 mg/kg/injection, schedule: Q04DX002 (ip), vehicle: Klucel (hydroxypropylcellulose) (HPC) 97 % of control | dose: 150.0 mg/kg/injection, schedule: Q04DX002 (ip), vehicle: Klucel (hydroxypropylcellulose) (HPC) 103 % of control

Cn1c(-c2ccc3c(c2)OCO3)cc(=O)c2ccccc21
inactive: dose: 30.0 mg/kg/injection, schedule: Q01DX005 (ip), vehicle: saline with Tween-80 97 % of control | [1] 92 % of control | [2] 92 % of control

CCCOC(=O)C1(CCl)CCC(=O)O1 (stereo not drawn)
inactive: [7] 101 % of control | [10] 103 % of control | [11] 103 % of control
